Data published in patent US20150139957A1, “GROWTH ENHANCING ADDITIVE FROM POMEGRANATE PLANT FOR POULTRY FEED” (GANIR (1992) LTD., priority 2012, published 2015).

Legend:
Ross male broilers [1] = experiment: Example 1: 42 d broiler trial, antibiotic in the feed present, absent or replaced; type: in vivo; conditions: PE1 4 kg per ton feed
Description: The effects of presence/absence/replacement of the antibiotics in the feed were examined. A group of 2000 Ross male broilers were randomly divided into four treatments and fed a mesh diet ad libitum. […] Body weight, feed intake and mortality were measured during the 42 d broiler trial. At the end of the trial, feed conversion was calculated and % cumulative mortality was recorded. Results indicated a 4.1% improved feed conversion in those birds which received an antibiotic growth promoter (Maxus™), compared to negative control (1.758 and 1.834 respectively). The addition of pomegranate extract powder improved feed conversion by 4.9% as compared to negative control treatment (1.744 and 1.834 respectively). Mortality results at end of trial were as follows: negative control 4.1%, antibiotic growth promoter 3.6% and pomegranate extract powder 1.4%.

Ross male broilers [2] = experiment: Example 2: broiler trial testing the efficacy of a taste masking agent; type: in vivo; conditions: alternative probiotic growth additive, treatment 5
Description: The objective of this trial was to test the efficacy of a taste masking agent. The trial examined the performance parameters in 2000 Ross male broilers randomly divided into 5 treatment groups. All broilers were fed mash feed ad libitum. Treatment 1, negative control, without addition of any growth promoter in feed, treatment 2, positive control with an antibiotic growth promoter avilamycin (Maxus™), treatment 3 received 2 kg additive PE1 of the invention per ton feed, treatment 4 received 2 kg additive PE1 of the invention per ton feed with a taste masking agent including thaumatin, and treatment 5 received an alternative probiotic growth additive (lactobacillus). Use of the masking agents improved broiler body weight results from 28-44 d period by 4.2% (1480 g vs 1420 g). Final body weight results at 44 d was improved by 3.6% in those broilers that received the masking agent as compared to those without. (2748 vs 2652). Feed conversion improved by 5.4% in those broilers receiving masking agent (1.84 instead of 1.94 kg/kg).

| Molecule | cumulative mortality at end of trial (Ross male broilers [1]; 42 d trial, negative control 4.1%) [%] | improved feed conversion compared to negative control (Ross male broilers [1]; end of 42 d trial, diet ad libitum) [%] | feed conversion (Ross male broilers [1]; end of 42 d trial, negative control 1.834) | body weight throughout the trial versus both pomegranate extract groups (Ross male broilers [2]) |
| --- | --- | --- | --- | --- |
| COC[C@H]1O[C@@H](OC2OC[C@@H]3O[C@]4(O[C@H]3[C@H]2OC(=O)C(C)C)O[C@H](C)[C@@](O)(C(C)=O)[C@@H]2OCO[C@H]24)[C@@H](OC)[C@@H](O)[C@@H]1O[C@@H]1O[C@H](C)[C@H](OC)[C@H](O[C@H]2C[C@@]3(C)OC4(C[C@@H](O)[C@H](O[C@H]5C[C@@H](O)[C@H](OC(=O)c6c(C)c(Cl)c(O)c(Cl)c6OC)[C@@H](C)O5)[C@@H](C)O4)O[C@@H]3[C@@H](C)O2)[C@H]1O (stereo partly shown) [avilamycin] | 3.6 | 4.1 | 1.758 |  |
| lactobacillus |  |  |  | consistently lower |
